In patent publication US7053107B2, “Indazole compounds and pharmaceutical compositions for inhibiting protein kinases, and methods for their use” (Agouron Pharmaceuticals, Inc., priority 2002, dated 2006):

Key:
[1] = target: T1, unphosphorylated VEGF-R2Δ50 (Homo sapiens, UniProt P35968, DEL940-989/E990V); experiment: VEGF-R2 coupled spectrophotometric assay, unphosphorylated construct (FLVK); format: biochemical; conditions: for inhibition at 0.05 µM: % inhibition at 50 nM compound, read-out: FLVK Ki % inh @ 50 nM
T1 construct: VEGF-R2Δ50 contains residues 806–939 and 990–1171; made in house; host or cells: baculovirus/insect cell system
T1 sequence (P35968 with tags, fused parts or gaps DEL940-989/E990V limits assumed): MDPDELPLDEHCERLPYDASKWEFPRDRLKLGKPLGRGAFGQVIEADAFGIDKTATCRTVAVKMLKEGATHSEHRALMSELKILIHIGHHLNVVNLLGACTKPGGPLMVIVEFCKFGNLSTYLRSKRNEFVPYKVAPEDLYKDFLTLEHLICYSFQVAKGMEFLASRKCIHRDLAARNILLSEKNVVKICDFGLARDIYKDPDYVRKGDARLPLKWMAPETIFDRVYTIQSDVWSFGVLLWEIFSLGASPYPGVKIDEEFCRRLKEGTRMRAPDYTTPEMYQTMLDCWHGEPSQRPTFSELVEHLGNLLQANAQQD
Text: This construct determines the ability of a test compound to inhibit tyrosine kinase activity. A construct (VEGF-R2Δ50) of the cytosolic domain of human vascular endothelial growth factor receptor 2 (VEGF-R2) lacking the 50 central residues of the 68 residues of the kinase insert domain was expressed in a baculovirus/insect cell system. Of the 1356 residues of full-length VEGF-R2, VEGF-R2Δ50 contains residues 806–939 and 990–1171, and also one point mutation (E99OV) within the kinase insert domain relative to wild-type VEGF-R2. Autophosphorylation of the purified construct was performed by incubation of the enzyme at a concentration of 4 μM in the presence of 3 mM ATP and 40 mM MgCl2 in 100 mM HEPES, pH 7.5, containing 5% glycerol and 5 mM DTT, at 4° C. for 2 h. […] See Parast et al., Biochemistry, 37,16788–16801 (1998).
(§1) The production of ADP from ATP that accompanies phosphoryl transfer was coupled to oxidation of NADH using phosphoenolpyruvate (PEP) and a system having pyruvate kinase (PK) and lactic dehydrogenase (LDH). The oxidation of NADH was monitored by following the decrease of absorbance at 340 nm (e340=6.22 cm^−1 mM^−1) using a Beckman DU 650 spectrophotometer. Assay conditions for phosphorylated VEGF-R2A50 (indicated as FLVK-P in the tables below) were the following: 1 mM PEP; 250 μM NADH; 50 units of LDH/mL; 20 units of PK/mL; 5 mM DTT; 5.1 mM poly(E4Y1); 1 mM ATP; and 25 mM MgCl2 in 200 mM HEPES, pH 7.5. Assay conditions for unphosphorylated VEGF-R2Δ50 (indicated as FLVK in the tables) were the following: 1 mM PEP; 250 μM NADH; 50 units of LDH/mL; 20 units of PK/mL; 5 mM DTT; […]; 3 mM ATP; and 60 mM MgCl2 and 2 mM MnCl2 in 200 mM HEPES, pH 7.5. Assays were initiated with 5 to 40 nM of enzyme. Ki values were determined by measuring enzyme activity in the presence of varying concentrations of test compounds. The data were analyzed using Enzyme Kinetic and Kaleidagraph software.

LCK = target: T2, LCK (Homo sapiens, UniProt P06239, C224D/P223M); experiment: Lymphocyte-Specific Protein-Tyrosine Kinase (LCK) spectrophotometric assay; format: biochemical; conditions: 1 μM compound; read-out: LckP* % inhibit @1 μM
T2 construct: starting from amino acid residue 223 to the end of the protein at residue 509; made in house; host or cells: insect cells
T2 sequence (P06239 223-509 P223M/C224D): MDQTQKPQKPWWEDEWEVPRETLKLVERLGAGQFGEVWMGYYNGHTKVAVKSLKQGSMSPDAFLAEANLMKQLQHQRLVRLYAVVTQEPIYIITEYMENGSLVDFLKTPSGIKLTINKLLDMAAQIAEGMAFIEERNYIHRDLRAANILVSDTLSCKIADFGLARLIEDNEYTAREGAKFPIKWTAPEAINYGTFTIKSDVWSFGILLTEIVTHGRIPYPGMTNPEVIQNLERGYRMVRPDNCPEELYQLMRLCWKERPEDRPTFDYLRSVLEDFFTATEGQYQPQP

FGF-R1 = target: T3, FGF-R1 (Homo sapiens, UniProt P11362, C488A/C584S/L457V); experiment: Fibroblast Growth Factor (FGF-R) spectrophotometric assay; format: biochemical; conditions: 1 μM compound; read-out: FGF-P % inhibit @1 μM
T3 construct: starting from the endogenous methionine residue 456 to glutamate 766; made in house; host or cells: baculovirus vector expression system
T3 sequence (P11362 456-766 L457V/C488A/C584S): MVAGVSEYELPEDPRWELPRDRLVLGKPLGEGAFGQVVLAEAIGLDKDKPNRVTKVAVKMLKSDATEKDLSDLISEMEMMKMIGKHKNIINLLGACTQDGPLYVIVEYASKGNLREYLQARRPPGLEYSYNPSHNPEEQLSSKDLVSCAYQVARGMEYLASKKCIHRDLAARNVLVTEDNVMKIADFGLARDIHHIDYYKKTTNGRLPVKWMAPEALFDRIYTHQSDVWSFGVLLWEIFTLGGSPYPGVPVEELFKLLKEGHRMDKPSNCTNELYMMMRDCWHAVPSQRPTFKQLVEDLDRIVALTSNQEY
Text: The intracellular kinase domain of human FGF-R1 was expressed using the baculovirus vector expression system starting from the endogenous methionine residue 456 to glutamate 766, according to the residue numbering system of Mohammadi et al., Mol. Cell. Biol., 16, 977–989 (1996). In addition, the construct also has the following 3 amino acid substitutions: L457V, C488A, and C584S.
as §1
The spectrophotometric assay was carried out as described above for VEGF-R2, except for the following changes in concentration: FGF-R=50 nM, ATP=2 mM, and poly(E4Y1)=15 mM.

[2] = tested on: human umbilical vein endothelial cells (HUVEC); experiment: HUVEC Proliferation Assay (VEGF-stimulated); format: cell-based
Experimental: This assay determines the ability of a test compound to inhibit the growth factor-stimulated proliferation of human umbilical vein endothelial cells (“HUVEC”). HUVEC cells (passage 3–4, Clonetics, Corp.) were thawed into EGM2 culture medium (Clonetics Corp) in T75 flasks. Fresh EGM2 medium was added to the flasks 24 hours later. Four or five days later, cells were exposed to another culture medium (F12K medium supplemented with 10% fetal bovine serum (FBS), 60 μg/mL endothelial cell growth supplement (ECGS), and 0.1 mg/mL heparin). Exponentially-growing HUVEC cells were used in experiments thereafter. Ten to twelve thousand HUVEC cells were plated in 96-well dishes in 100 μl of rich, culture medium (described above). The cells were allowed to attach for 24 hours in this medium. The medium was then removed by aspiration and 105 μl of starvation media (F12K+1% FBS) was added to each well. After 24 hours, 15 μl of test agent dissolved in 1% DMSO in starvation medium or this vehicle alone was added into each treatment well; the final DMSO concentration was 0.1%. One hour later, 30 μl of VEGF (30 ng/mL) in starvation media was added to all wells except those containing untreated controls; the final VEGF concentration was 6 ng/mL. Cellular proliferation was quantified 72 hours later by MTT dye reduction, at which time cells were exposed for 4 hours MTT (Promega Corp.). Dye reduction was stopped by addition of a stop solution (Promega Corp.) and absorbance at 595λ was determined on a 96-well spectrophotometer plate reader.
IC50 values were calculated by curve-fitting the response of A^595 to various concentrations of the test agent; typically, seven concentrations separated by 0.5 log were employed, with triplicate wells at each concentration. For screening compound library plates, one or two concentrations (one well per concentration) were employed, and the % inhibition was calculated by the following formula: % inhibition=(control−test)[…](control−starvation) where
control=A^595 when VEGF is present without test agent
test=A^595 when VEGF is present with test agent
starvation=A^595 when VEGF and test agent are both absent.

[3] = Human Liver Microsome (HLM) Assay; format: in vitro ADME
Experimental: Compound metabolism in human liver microsomes was measured by LC-MS analytical assay procedures as follows. First, human liver microsomes (HLM) were thawed and diluted to 5 mg/mL with cold 100 mM potassium phosphate (KPO4) buffer. Appropriate amounts of KPO4 buffer, NADPH-regenerating solution (containing B-NADP, glucose-6-phosphate, glucose-6-phosphate dehydrogenase, and MgCl2), and HLM were preincubated in 13×100 mm glass tubes at 37 C. for 10 min. (3 tubes per test compound—triplicate). Test compound (5 µM final) was added to each tube to initiate reaction and was mixed by gentle vortexing, followed by incubation at 37° C. […] Samples were centrifuged at 4000 rpm for 20 min. to precipitate proteins and salt (Beckman Allegra 6KR, S/N ALK98DO6, #634). Supernatant was transferred to new 12×75 mm glass tubes and evaporated by Speed-Vac centrifugal vacuum evaporator. Samples were reconstituted in 200 μL 0.1% formic acid/acetonitrile (90/10) and vortexed vigorously to dissolve. The samples were then transferred to separate polypropylene microcentrifuge tubes and centrifuged at 14000×g for 10 min. (Fisher Micro 14, S/N M0017580). […]
The combined compound samples were injected into the LC-MS system, composed of a Hewlett-Packard HP 1100 diode array HPLC and a Micromass Quattro II triple quadruple mass spectrometer operating in positive electrospray SIR mode (programmed to scan specifically for the molecular ion of each test compound. Each test compound peak was integrated at each timepoint. […]

PDGFRβ = target: T4, PDGFRβ (Homo sapiens, UniProt P09619); experiment: PAE-PDGFRβ Phosphorylation in PAE-PDGFRB Cells Assay; format: cell-based; conditions: PAE cells overexpressing human PDGFRβ; read-out: PAE PDGFR autophos IC50
T4 construct: expressed in transfected cells; host or cells: porcine aorta endothelial (PAE) cells
T4 sequence (P09619 33-1106): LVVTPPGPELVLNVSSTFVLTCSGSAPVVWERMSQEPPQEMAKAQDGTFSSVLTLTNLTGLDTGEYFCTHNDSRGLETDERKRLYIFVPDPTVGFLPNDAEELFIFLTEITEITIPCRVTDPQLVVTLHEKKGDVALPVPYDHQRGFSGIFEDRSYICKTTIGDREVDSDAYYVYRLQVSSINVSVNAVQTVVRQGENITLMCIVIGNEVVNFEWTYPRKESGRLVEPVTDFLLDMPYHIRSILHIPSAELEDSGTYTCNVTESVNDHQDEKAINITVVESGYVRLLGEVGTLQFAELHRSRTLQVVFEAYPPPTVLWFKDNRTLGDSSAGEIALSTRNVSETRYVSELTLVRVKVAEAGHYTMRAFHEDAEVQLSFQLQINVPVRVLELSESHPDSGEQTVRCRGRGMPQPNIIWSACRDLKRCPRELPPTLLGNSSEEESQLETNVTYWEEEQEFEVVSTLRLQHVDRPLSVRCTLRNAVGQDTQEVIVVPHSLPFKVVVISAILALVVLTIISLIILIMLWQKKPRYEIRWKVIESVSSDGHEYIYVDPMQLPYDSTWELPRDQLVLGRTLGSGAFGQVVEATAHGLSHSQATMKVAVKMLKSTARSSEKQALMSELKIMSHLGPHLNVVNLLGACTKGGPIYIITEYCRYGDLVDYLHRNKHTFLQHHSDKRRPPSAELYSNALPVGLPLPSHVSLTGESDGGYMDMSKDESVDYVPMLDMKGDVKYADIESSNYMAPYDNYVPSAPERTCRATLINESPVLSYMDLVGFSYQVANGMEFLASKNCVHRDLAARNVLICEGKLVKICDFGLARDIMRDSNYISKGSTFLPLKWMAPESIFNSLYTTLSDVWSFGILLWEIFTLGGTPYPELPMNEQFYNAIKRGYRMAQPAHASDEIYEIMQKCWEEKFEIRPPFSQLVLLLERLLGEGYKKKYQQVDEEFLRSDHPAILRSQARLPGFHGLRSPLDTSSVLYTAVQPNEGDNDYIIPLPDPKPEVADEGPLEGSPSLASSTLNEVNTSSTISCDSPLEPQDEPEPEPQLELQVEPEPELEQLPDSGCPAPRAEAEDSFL
Experimental: This assay determines the ability of a test compound to inhibit the autophosphorylation of PDGFRβ in porcine aorta endothelial (PAE)-PDGFRβ cells. PAE cells that overexpress human PDGFRβ were used in this assay. The cells were cultured in Ham's F12 media supplemented with 10% fetal bovine serum (FBS) and 400 ug/ml G418. Twenty thousands cells were seeded in each well of a 96-well plate in 50 μL of growth media and allowed to attach for 6 hours at 37° C. Cells were then exposed to the starvation media (Ham's F12 media supplemented with 0.1% FBS) for 16 hours. After the starvation period was over, 10 μL of test agent in 5% DMSO in starvation media were added to the test wells and 10 μL of the vehicle (5% DMSO in starvation media) were added into the control wells. The final DMSO concentration in each well was 0.5%. Plates were incubated at 37° C. for 1 hour and the cells were then stimulated with 1 μg/mL PDGF-BB (R & D System) in the presence of 2 mM Na3VO4 for 8 minutes. The cells were washed once with 1 mm Na3VO4 in HBSS and lysed by adding 50 μL per well of lysis buffer. One hundred μL of dilution buffer were then added to each well and the diluted cell lysate was transferred to a 96-well goat ant-rabbit coated plate (Pierce), which was pre-coated with Rabbit anti Human PDGFRβ antibody (Santa Cruz). The plates were incubated at room temperature for 2 hours and washed seven times with 1% Tween 20 in PBS. HRP-PY20 (Santa Cruz) was diluted and added to the plate for a 30-minute incubation. Plates were then washed again and TMB peroxidase substrate (Kirkegaard & Perry) was added for a 10-minute incubation. One hundred μL of 0.09 N H2SO4 was added into each well of the 96-well plate to stop the reaction. Phosphorylation status was assessed by spectrophotometer reading at 450 nm. IC50 values were calculated by curve fitting using a four-parameter analysis.

HUVEC = experiment: bFGF Huvec; format: cell-based; conditions: Homo sapiens

inhibition at 0.05 µM [1]	inhibition at 1 µM (LCK)	inhibition at 1 µM (FGF-R1)	% remaining (HLM) ([3]; @2 h)	% remaining (HLM) ([3]; @0.5 h)	IC50 (PDGFRβ)	Ki ([1]; cell prints nM instead of % inhibition)	Structure (SMILES)	IC50 [2]	IC50 (HUVEC)
98%	30%	99%	–	–	–	–	CONC(=O)c1ccccc1Nc1ccc2c(/C=C/c3ccccn3)n[nH]c2c1 [Example 3(a), N-Methoxy-2-[3-((E)-2-pyridin-2-yl-vinyl)-1H-indazol-6-ylamino]-benzamide]	12.7 nM	–
98%	27%	96%	84@2 h %	–	–	–	C=CCONC(=O)c1ccccc1Nc1ccc2c(/C=C/c3ccccn3)n[nH]c2c1 [Example 3(b), N-Allyloxy-2-[3-((E)-2-pyridin-2-yl-vinyl)-1H-indazol-6-ylamino]-benzamide]	5.7 nM	–
95%	28%	72%	–	72@0.5 h %	–	–	O=C(NCc1ccccc1)c1ccccc1Nc1ccc2c(/C=C/c3ccccn3)n[nH]c2c1 [Example 3(g), N-Benzyl-2-[3-((E)-2-pyridin-2-yl-vinyl)-1H-indazol6-ylamino]-benzamide]	1.1 nM	–
88%	22%	45%	–	–	1.9 nM	–	O=C(NCc1ccco1)c1ccccc1Nc1ccc2c(/C=C/c3ccccn3)n[nH]c2c1 [Example 3(i), N-Furan-2-ylmethyl-2-[3-((E)-2-pyridin-2-yl-vinyl)-1H-indazol-6-ylamino]-benzamide]	0.2 nM	1000 nM
64%	–	29%	–	–	12.3 nM	–	C=C(C)CNC(=O)c1ccccc1Nc1ccc2c(/C=C/c3cc(C)cc(C)n3)n[nH]c2c1 [Example 15, 2-{3-[2-(4,6-Dimethyl-pyridin-2-yl)-vinyl]-1H-indazol-6-ylamino}-N-(2-methyl-allyl)-benzamide]	1.5 nM	1610 nM
94%	–	59%	–	–	–	–	Cc1cc(C)nc(/C=C/c2n[nH]c3cc(Nc4ccccc4C(=O)NCC#CC4CC4)ccc23)c1 [Example 18, N-(3-Cycloprop-2-ynyl)-2-{3-[(E)-2-(4,6-dimethyl-pyridin-2-yl)-vinyl]-1H-indazol-6-ylamino}-benzamide]	–	1880 nM
45%	–	11%	–	–	–	–	Cc1ccnc(/C=C/c2n[nH]c3cc(Nc4ccccc4C(=O)NCc4cc(C)nn4C)ccc23)c1 [Example 41, N-(2,5-Dimethyl-2H-pyrazol-3-ylmethyl)-2-{3-[(E)-2-(4-methyl-pyridin-2-yl)-vinyl]-1H-indazol-6-ylamino}-benzamide]	6.4 nM	3780 nM
65%	–	14%	–	–	–	–	Cc1cc(CNC(=O)c2ccccc2Nc2ccc3c(/C=N/n4cccc4)n[nH]c3c2)n(C)n1 [Example 61, N-(2,5-Dimethyl-2H-pyrazol-3-ylmethyl)-2-[3-(pyrrol-1-yliminomethyl)-1H-indazol-6-ylamino]-benzamide]	6.5 nM	662 nM
–	–	–	–	86@0.5 h %	5.8 nM	3.11 nM	Cc1cc(CNC(=O)c2ccccc2Nc2ccc3c(/C=C/c4ccccn4)n[nH]c3c2)n(C)n1 [Example 65, N-(2,5-Dimethyl-2H-pyrazol-3-ylmethyl)-2-[3-(2-pyridin-2-yl-vinyl)-1H-indazol-6-ylamino]-benzamide]	3.4 nM	–
